Here are results for 21 compounds from US11149011B2, “Compounds and methods for IDO and TDO modulation, and indications therefor” (Plexxikon Inc., priority 2018, dated 2021).

The target in experiment [1] is T1, IDO1-expressing HEK293 cell clones (Homo sapiens, UniProt P14902).
T1 construct: expressed in transfected cells; host or cells: HEK293
As to the kind of experiment: Cell based kynurenine assay, IDO1-expressing HEK293 cell clones. To be noted: HEK293 cells, 24 hours of incubation, geometric mean; read-out: HEK293 IDO1 Kynurenine GMean IC50 (μM) (Cellular Assay). The method in brief: (§1)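 HEK293 clones stably transfected with CMV-driven human IDO1 or human TDO were seeded at 2.5×10^4 cells/well and treated with serial compound dilutions for 24 hours. Supernatant kynurenine was measured. % inhibition versus DMSO-cell and media-only controls was fitted by nonlinear regression to give IC50.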

Experiment [2] has as its target T2, TDO-expressing HEK293 cell clones (Homo sapiens, UniProt P48775).
T2 construct: expressed in transfected cells; host or cells: HEK293
As to the kind of experiment: Cell based kynurenine assay, TDO-expressing HEK293 cell clones. To be noted: HEK293 cells, 24 hours of incubation, geometric mean; read-out: HEK293 TDO Kynurenine GMean IC50 (μM) (Cellular Assay). The method in brief:
as §1

The target of experiment [3] is T3, TDO (Homo sapiens, UniProt P48775).
T3 construct: His tag (N); made in house; host or cells: E. coli
T3 sequence (P48775 whole entry): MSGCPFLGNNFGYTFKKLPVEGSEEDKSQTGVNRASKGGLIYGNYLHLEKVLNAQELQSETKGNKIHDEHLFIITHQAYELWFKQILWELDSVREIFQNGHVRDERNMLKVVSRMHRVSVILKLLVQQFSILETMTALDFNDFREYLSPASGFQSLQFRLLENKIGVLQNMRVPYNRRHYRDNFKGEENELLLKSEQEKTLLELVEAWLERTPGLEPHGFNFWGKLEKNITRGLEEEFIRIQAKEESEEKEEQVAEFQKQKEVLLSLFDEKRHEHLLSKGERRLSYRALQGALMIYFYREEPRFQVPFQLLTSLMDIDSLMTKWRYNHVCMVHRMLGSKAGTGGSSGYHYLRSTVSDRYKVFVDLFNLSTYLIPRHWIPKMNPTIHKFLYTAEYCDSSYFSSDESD
The experiment is described as follows: TDO enzymatic assay. The conditions noted are these: geometric mean; read-out: TDO GMean: IC50 (μM) (Biochemical Assay). The method in brief:
(§2)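 N-His human enzymes from E. coli in 50 mM sodium phosphate pH 6.5 with ascorbate, catalase, Tween 20. IDO: 6 nM enzyme, 10 μM L-Trp, 5 μM methylene blue, 20 min RT; TDO: 1 nM enzyme, 350 μM L-Trp, 0.4 μM methylene blue, 70 min RT. TCA stop, kynurenine measured; IC50 by nonlinear regression.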

Experiment [4] deals with T4, IDO1 (Homo sapiens, UniProt P14902).
T4 construct: His tag (N); made in house; host or cells: E. coli
T4 sequence (P14902 whole entry): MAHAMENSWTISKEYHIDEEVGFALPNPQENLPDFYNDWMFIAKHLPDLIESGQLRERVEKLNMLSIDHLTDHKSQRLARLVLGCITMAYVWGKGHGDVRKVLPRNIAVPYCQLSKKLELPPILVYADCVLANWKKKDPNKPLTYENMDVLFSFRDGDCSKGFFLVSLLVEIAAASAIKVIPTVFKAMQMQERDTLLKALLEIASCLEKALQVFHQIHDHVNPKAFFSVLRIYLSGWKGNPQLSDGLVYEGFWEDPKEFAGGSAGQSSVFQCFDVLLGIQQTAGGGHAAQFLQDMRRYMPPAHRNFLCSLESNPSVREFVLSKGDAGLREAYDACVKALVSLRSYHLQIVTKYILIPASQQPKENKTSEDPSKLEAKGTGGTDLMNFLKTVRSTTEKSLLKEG
As to the kind of experiment: IDO enzymatic assay. Format: biochemical. To be noted: geometric mean; read-out: IDO1 GMean: IC50 (μM) (Biochemical Assay). The method, boiled down:
as §2

Structures are written as SMILES.

T2 sequence (P48775 whole entry): as the sequence (P48775 whole entry) above
T1 sequence (P14902 whole entry): as the sequence (P14902 whole entry) above

In general, IC50 refers to the concentration that inhibits the measured activity by half. With `CC(C)(C1CCN(C(=O)NCCCF)CC1)C(O)c1cc(Cl)cc2[nH]ncc12` (stereo not drawn) [Compound P-0090, 4-(1-(6-chloro-1H-indazol-4-yl)-1-hydroxy-2-methylpropan-2-yl)-N-(3-fluoropropyl)piperidine-1-carboxamide], the IC50 is over 10 µM in experiment [1], 0.0001 to 10 µM in experiment [2], 0.0001 to 10 µM in experiment [3] and 0.0001 to 10 µM in experiment [4].

In the case of `CC(C)(C1CCN(C(=O)CCO)CC1)[C@H](O)c1cc(Cl)cc2cn[nH]c12` [Compound P-0134, (S)-1-(4-(1-(5-chloro-1H-indazol-7-yl)-1-hydroxy-2-methylpropan-2-yl)piperidin-1-yl)-3-hydroxypropan-1-one], the concentration for half-maximal inhibition (IC50) in experiment [1], in experiment [2], in experiment [3] and in experiment [4] was 0.0001 to 10 µM in each case.

In the case of `CC(C)(C1CCN(C(=O)C2CC2)CC1)C(O)c1cc(Cl)cc2[nH]ncc12` (stereo not drawn) [Compound P-0046, (4-(1-(6-chloro-1H-indazol-4-yl)-1-hydroxy-2-methylpropan-2-yl)piperidin-1-yl)(cyclopropyl)methanone], the IC50 in experiment [1] is over 10 µM; in experiment [2], 0.0001 to 10 µM; in experiment [3], 0.0001 to 10 µM; in experiment [4], 0.0001 to 10 µM.

Turning to `CC(C)(C1CCN(C(=O)NOCC(F)(F)F)CC1)[C@H](O)c1cc(Cl)cc2cn[nH]c12` [Compound P-0065, (S)-4-(1-(5-chloro-1H-indazol-7-yl)-1-hydroxy-2-methylpropan-2-yl)-N-(2,2,2-trifluoroethoxy)piperidine-1-carboxamide], the IC50 in experiment [1], in experiment [2], in experiment [3] and in experiment [4] was 0.0001 to 10 µM throughout.

Consider `CC(C)(C1CCN(S(=O)(=O)C2CC2)CC1)C(O)c1cc(Cl)cc2[nH]ncc12` (stereo not drawn) [Compound P-0073, 1-(6-chloro-1H-indazol-4-yl)-2-(1-(cyclopropylsulfonyl)piperidin-4-yl)-2-methylpropan-1-ol], for which the IC50 in experiment [1] is over 10 µM; in experiment [2], 0.0001 to 10 µM; in experiment [3], 0.0001 to 10 µM; in experiment [4], 0.0001 to 10 µM.

Regarding `CC(C)(C1CCN(C(=O)CC2CCOCC2)CC1)C(O)c1cc(Cl)cc2[nH]ncc12` (stereo not drawn) [Compound P-0050, 1-(4-(1-(6-chloro-1H-indazol-4-yl)-1-hydroxy-2-methylpropan-2-yl)piperidin-1-yl)-2-(tetrahydro-2H-pyran-4-yl)ethan-1-one], the IC50 in experiment [1], in experiment [2], in experiment [3] and in experiment [4] was 0.0001 to 10 µM each time.

As to `O=C(NCCC(F)(F)F)N1CCC(C(F)(F)C(=O)c2c(F)c(Cl)cc3cn[nH]c23)CC1` [Compound P-0039, 4-(2-(5-chloro-6-fluoro-1H-indazol-7-yl)-1,1-difluoro-2-oxoethyl)-N-(3,3,3-trifluoropropyl)piperidine-1-carboxamide], the IC50 in experiment [1], in experiment [2], in experiment [3] and in experiment [4] was 0.0001 to 10 µM in each case.

Turning to `[2H]C([2H])([2H])C(C1CCN(C(=O)CO)CC1)(C(O)c1cc(Cl)cc2cn[nH]c12)C([2H])([2H])[2H]` (stereo not drawn) [Compound P-0143, 1-(4-(2-((5-chloro-1H-indazol-7-yl)(hydroxy)methyl)propan-2-yl-1,1,1,3,3,3-d6)piperidin-1-yl)-2-hydroxyethan-1-one], the IC50 in experiment [1], in experiment [2], in experiment [3] and in experiment [4] was 0.0001 to 10 µM throughout.

`CC(C)(C1CCN(C(=O)CN2CCCC2)CC1)[C@H](O)c1cc(Cl)cc2cn[nH]c12` [Compound P-0059, (S)-1-(4-(1-(5-chloro-1H-indazol-7-yl)-1-hydroxy-2-methylpropan-2-yl)piperidin-1-yl)-2-(pyrrolidin-1-yl)ethan-1-one]: the IC50 in experiment [1], in experiment [2], in experiment [3] and in experiment [4] was 0.0001 to 10 µM throughout.

`CC(C)(C1CCN(C(=O)NCc2ccc(C#N)nc2)CC1)C(O)c1cc(Cl)cc2[nH]ncc12` (stereo not drawn) [Compound P-0116, 4-(1-(6-chloro-1H-indazol-4-yl)-1-hydroxy-2-methylpropan-2-yl)-N-((6-cyanopyridin-3-yl)methyl)piperidine-1-carboxamide]: the IC50 in experiment [1], in experiment [2], in experiment [3] and in experiment [4] was 0.0001 to 10 µM in each case.

For `CN(C)CCONC(=O)N1CCC(C(C)(C)[C@H](O)c2cc(Cl)cc3cn[nH]c23)CC1` [Compound P-0063, (S)-4-(1-(5-chloro-1H-indazol-7-yl)-1-hydroxy-2-methylpropan-2-yl)-N-(2-(dimethylamino)ethoxy)piperidine-1-carboxamide], the IC50 in experiment [1], in experiment [2], in experiment [3] and in experiment [4] was 0.0001 to 10 µM in each case.

For the compound `N#CCCCNC(=O)N1CCC(C(F)(F)C(=O)c2c(F)c(Cl)cc3cn[nH]c23)CC1` [Compound P-0042, 4-(2-(5-chloro-6-fluoro-1H-indazol-7-yl)-1,1-difluoro-2-oxoethyl)-N-(3-cyanopropyl)piperidine-1-carboxamide], the IC50 in experiment [1], in experiment [2], in experiment [3] and in experiment [4] was 0.0001 to 10 µM each time.

Consider `CC(C)(C1CCN(C(=O)NCC2(O)CCC2)CC1)[C@H](O)c1cc(Cl)cc2cn[nH]c12` [Compound P-0029, (S)-4-(1-(5-chloro-1H-indazol-7-yl)-1-hydroxy-2-methylpropan-2-yl)-N-((1-hydroxycyclobutyl)methyl)piperidine-1-carboxamide], for which the IC50 in experiment [1], in experiment [2], in experiment [3] and in experiment [4] was 0.0001 to 10 µM each time.

As for `OC1(c2cc(Cl)cc3cn[nH]c23)CCC(F)(F)CC1` [Compound P-0008, 1-(5-chloro-1H-indazol-7-yl)-4,4-difluorocyclohexan-1-ol], the IC50 in experiment [1], in experiment [2], in experiment [3] and in experiment [4] was 0.0001 to 10 µM each time.

Turning to `C[C@H](NC(=O)N1CCC(C(C)(C)[C@H](O)c2cc(Cl)cc3cn[nH]c23)CC1)c1ccccn1` [Compound P-0021, 4-((S)-1-(5-chloro-1H-indazol-7-yl)-1-hydroxy-2-methylpropan-2-yl)-N-((S)-1-(pyridin-2-yl)ethyl)piperidine-1-carboxamide], the IC50 in experiment [1], in experiment [2], in experiment [3] and in experiment [4] was 0.0001 to 10 µM each time.

As to `CC(C)(C1CCN(C(=O)NCC#N)CC1)C(O)c1cc(Cl)cc2[nH]ncc12` (stereo not drawn) [Compound P-0087, 4-(1-(6-chloro-1H-indazol-4-yl)-1-hydroxy-2-methylpropan-2-yl)-N-(cyanomethyl)piperidine-1-carboxamide], the IC50 in experiment [1] is over 10 µM; in experiment [2], 0.0001 to 10 µM; in experiment [3], 0.0001 to 10 µM; in experiment [4], 0.0001 to 10 µM.

For the compound `CC(C)(C1CCN(C(=O)NCC(F)(F)F)CC1)C(O)c1cc(Cl)cc2[nH]ncc12` (stereo not drawn) [Compound P-0084, 4-(1-(6-chloro-1H-indazol-4-yl)-1-hydroxy-2-methylpropan-2-yl)-N-(2,2,2-trifluoroethyl)piperidine-1-carboxamide], the 50% inhibitory concentration (IC50) in experiment [1], in experiment [2], in experiment [3] and in experiment [4] was 0.0001 to 10 µM throughout.

Turning to `CCN(CC)CC(=O)N1CCC(C(C)(C)[C@H](O)c2cc(Cl)cc3cn[nH]c23)CC1` [Compound P-0058, (S)-1-(4-(1-(5-chloro-1H-indazol-7-yl)-1-hydroxy-2-methylpropan-2-yl)piperidin-1-yl)-2-(diethylamino)ethan-1-one], the IC50 in experiment [1], in experiment [2], in experiment [3] and in experiment [4] was 0.0001 to 10 µM in each case.

`CC(C)(C1CCN(C(=O)NO)CC1)[C@H](O)c1cc(Cl)cc2cn[nH]c12` [Compound P-0122, (S)-4-(1-(5-chloro-1H-indazol-7-yl)-1-hydroxy-2-methylpropan-2-yl)-N-hydroxypiperidine-1-carboxamide]: the IC50 in experiment [1], in experiment [2], in experiment [3] and in experiment [4] was 0.0001 to 10 µM throughout.

On to `CC(C)(N)C(=O)N1CCC(C(C)(C)[C@H](O)c2cc(Cl)cc3cn[nH]c23)CC1` [Compound P-0067, (S)-2-amino-1-(4-(1-(5-chloro-1H-indazol-7-yl)-1-hydroxy-2-methylpropan-2-yl)piperidin-1-yl)-2-methylpropan-1-one], for which the IC50 in experiment [1], in experiment [2], in experiment [3] and in experiment [4] was 0.0001 to 10 µM in each case.

For the compound `COCC(=O)N1CCC(C(F)(F)C(=O)c2c(F)c(Cl)cc3cn[nH]c23)CC1` [Compound P-0034, 1-(5-chloro-6-fluoro-1H-indazol-7-yl)-2,2-difluoro-2-(1-(2-methoxyacetyl)piperidin-4-yl)ethan-1-one], the IC50 in experiment [1], in experiment [2], in experiment [3] and in experiment [4] was 0.0001 to 10 µM each time.
